Results on 4 compounds are retold here after patent publication US11970483B2, “Heterocyclic compound” (Takeda Pharmaceutical Company Limited, priority 2018, dated 2024).

The nature of series [1]: Rat PK test (cassette dosing). The conditions noted are these: male SD rats, plasma; for clearance / MRT: intravenous 0.1 mg/kg, 10 compounds cassette; for clearance: read-out: CL total (total clearance) (converted); for MRT: read-out: MRT iv (mean residence time, intravenous administration); for Tmax: oral administration 1 mg/kg, 5 compounds cassette, read-out: Tmax (time to reach maximum plasma concentration). It counts as in vivo. On the procedure: As the rat, 8-week-old male SD rats (Japan SLC, Inc.) were used. They were fed on a solid commercially available diet (CE-2, CLEA Japan, Inc.) and allowed to freely ingest tap water as the drinking water. An intravenous administration solution for the rats was prepared by weighing a test compound, dissolving same in dimethylacetamide (DMA) (Wako Pure Chemical Industries, Ltd.), adding the same volume of 1,3-butanediol (Wako Pure Chemical Industries, Ltd.) and mixing by stirring to give a DMA:1,3-butanediol (1:1, v/v) solution. An oral administration solution was prepared by weighing a test compound, pulverizing same in an agate mortar, and gradually adding 0.5 w/v % aqueous methylcellulose solution to give a suspension. For intravenous administration, the solution was administered into femoral vein of the rats at 0.1 mg/0.5 mL/kg (salt converted to free form). For oral administration, the suspension was administered to the rats at 1 mg/5 mL/kg (salt converted to free form). The cassette dosing method was used for the both administration routes, and the test compound was administered in the following manner.
Compound of Example 1 (intravenous: 10 compounds cassette administration, oral: 5 compounds cassette administration)
Compound of Example 27 (intravenous: 10 compounds cassette administration, oral: 5 compounds cassette administration)
Compound of Example 28 (intravenous: 10 compounds cassette administration, oral: 5 compounds cassette administration)
Compound of Example 29 (intravenous: 10 compounds cassette administration, oral: 5 compounds cassette administration)
In the case of intravenous administration, blood samples were collected from the tail vein at 5, 10, 15, 30 min, 1, 2, 4, 8 hr after administration, an anticoagulation treatment with heparin sodium (Shimizu Pharmaceutical Co., Ltd.) was performed, and plasma was collected after centrifugation and subjected to the measurement of drug concentration. In the case of oral administration, blood samples were collected from the tail vein at 15, 30 min, 1, 2, 4, 8 hr after administration, an anticoagulation treatment with heparin sodium was performed, and plasma was collected after centrifugation and subjected to the measurement of drug concentration.
All drug concentrations were measured by LC-MS/MS analysis. For a pharmacokinetics test, the plasma (50 μL) was placed in a tube, acetonitrile (150 μL) containing internal standard solution was added and they were mixed on a vortex mixer. Thereafter, the mixture was centrifuged (5000 rpm, 5 min, 4° C.). The supernatant (60 μL) after centrifugation was added to 10 mmol/L ammonium formate (160 μL) added earlier and mixed therewith. This sample was injected to LC/MS/MS. The HPLC system used was Shimadzu LC-20A (Shimadzu Corporation), the column used was Unison UK-C18 HT (3.0 μm, 2.0×20 mm, Imtakt) at 50° C., and 10 mmol/L ammonium formate, 0.2% formic acid as mobile phase A and acetonitrile, 0.2% formic acid as mobile phase B were fed each at a flow rate of 1.2 mL/min under gradient conditions of (B concentration: 0 min→0.1 min, 5%, 0.1→0.75 min, 5-99%, 0.75→1.15 min, 99%, 1.15→1.16 min, 5%, 1.16→1.5 min, 5%). MS/MS used was AB Sciex TQ5500-MPX (Applied Biosystems).
Tmax: time to reach maximum plasma concentration
iv: intravenous administration
CL total: total clearance

The next series has as its system Male SD rats. Description: Rat defecation experiment. It counts as in vivo. Particulars: oral, mean±standard error. Here is the method:
Rat Defecation Experiment
Male SD rats (5-6 weeks old) were used after an acclimation period for about 1 week. A test drug (1 mg/kg or 3 mg/kg) was suspended in 0.5% methylcellulose solution and orally administered at a volume of 5 mL/kg, and the number of feces 2 hr later was counted. Only 0.5% methylcellulose was administered to a solvent administration group.

For `Cc1c(Cc2ccc(C(=O)NCC(=O)N(C)C)c(F)c2)cc(C(=O)N[C@H]2CCOC[C@@H]2O)c2c1CCO2` [Example 28, 1,5-anhydro-2,3-dideoxy-3-({5-[(4-{[2-(dimethylamino)-2-oxoethyl]carbamoyl}-3-fluorophenyl)methyl]-4-methyl-2,3-dihydro-1-benzofuran-7-carbonyl}amino)-L-threo-pentitol], in series [1], the clearance (in general, the volume of plasma or blood freed of the substance per unit of time) was 18.9 mL/min/kg; the MRT came out at 36 min; the Tmax worked out at 48 min. Further, the “number of feces 2 hr later” value in the series with Male SD rats (1 mg/kg) is listed as 8.0 ± 1.0. For the same compound, in the series on Male SD rats (3 mg/kg), the “number of feces 2 hr later” value worked out at 8.1 ± 1.4.
`Cc1c(Cc2ccc(-c3cn(C)nn3)cc2)cc(C(=O)N[C@H]2CCOC[C@@H]2O)c2c1CCO2` [Example 1, 1,5-anhydro-2,3-dideoxy-3-[(4-methyl-5-{[4-(1-methyl-1H-1,2,3-triazol-4-yl)phenyl]methyl}-2,3-dihydro-1-benzofuran-7-carbonyl)amino]-L-threo-pentitol]: in series [1], the clearance is 3.08 mL/min/kg, the MRT was 108 min and the Tmax is 60 min.
As to `COCCNC(=O)c1ccc(Cc2cc(C(=O)N[C@H]3CCOC[C@@H]3O)c3c(c2C)CCO3)cc1F` [Example 27, 1,5-anhydro-2,3-dideoxy-3-{[5-({3-fluoro-4-[(2-methoxyethyl)carbamoyl]phenyl}methyl)-4-methyl-2,3-dihydro-1-benzofuran-7-carbonyl]amino}-L-threo-pentitol], in series [1], the clearance was 19.6 mL/min/kg, the MRT turned out to be 42 min and the Tmax came out at 60 min.
Turning to `Cc1c(Cc2ccc(C(=O)NC[C@H]3CCCO3)c(F)c2)cc(C(=O)N[C@H]2CCOC[C@@H]2O)c2c1CCO2` [Example 29, 1,5-anhydro-2,3-dideoxy-3-[(5-{[3-fluoro-4-({[(2R)-oxolan-2-yl]methyl}carbamoyl)phenyl]methyl}-4-methyl-2,3-dihydro-1-benzofuran-7-carbonyl)amino]-L-threo-pentitol], in series [1], the clearance is 27.5 mL/min/kg, the MRT amounted to 36 min and the Tmax is 30 min. For the same compound, the “number of feces 2 hr later” value in the series on Male SD rats (1 mg/kg) was 5.0 ± 0.8. The “number of feces 2 hr later” value in the series with Male SD rats (3 mg/kg) was 9.0 ± 0.7.
